# In ChEMBL document CHEMBL1201862, “PubChem BioAssay data set” (2004):
# Active and inactive are the calls of the source.
# Key:
# [1] = molecular target: T1, High affinity choline transporter 1 (Homo sapiens, UniProt Q9GZV3); assay: human choline transporter blockers, potency – cell-based, 5-point CRC, membrane potential dye, dose response (AID 504840); assay type: functional
# T1 sequence (Q9GZV3 whole entry): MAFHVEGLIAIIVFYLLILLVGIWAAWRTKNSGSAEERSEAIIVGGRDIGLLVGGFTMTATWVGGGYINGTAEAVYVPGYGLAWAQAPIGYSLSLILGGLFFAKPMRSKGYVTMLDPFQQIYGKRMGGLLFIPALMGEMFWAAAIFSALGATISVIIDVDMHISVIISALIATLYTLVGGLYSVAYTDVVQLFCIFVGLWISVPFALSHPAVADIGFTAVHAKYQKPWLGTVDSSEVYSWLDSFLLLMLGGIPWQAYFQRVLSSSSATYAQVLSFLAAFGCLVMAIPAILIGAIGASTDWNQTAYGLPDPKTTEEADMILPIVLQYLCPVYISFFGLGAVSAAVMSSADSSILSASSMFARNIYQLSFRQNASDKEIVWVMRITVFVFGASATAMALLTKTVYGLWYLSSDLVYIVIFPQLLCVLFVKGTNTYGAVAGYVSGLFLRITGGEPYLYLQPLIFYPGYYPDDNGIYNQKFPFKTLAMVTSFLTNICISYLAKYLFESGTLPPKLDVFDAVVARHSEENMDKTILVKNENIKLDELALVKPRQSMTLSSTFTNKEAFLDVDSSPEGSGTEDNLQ
# [2] = molecular target: T1, High affinity choline transporter 1; assay: human choline transporter blockers, potency – cell-based, 10-point CRC, membrane potential dye, dose response (AID 588401); assay type: functional;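 further: membrane potential dye fluorescence of choline-evoked depolarization via CHT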
# cells = assay type: functional, cell-based
# [3] = molecular target: T2, Nuclear receptor subfamily 0 group B member 1 (Homo sapiens, UniProt P51843); assay type: functional, cell-based;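 further: HEK293T cells transfected with SF-1 and DAX-1 plus StAR promoter luciferase reporter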
# T2 sequence (P51843 whole entry): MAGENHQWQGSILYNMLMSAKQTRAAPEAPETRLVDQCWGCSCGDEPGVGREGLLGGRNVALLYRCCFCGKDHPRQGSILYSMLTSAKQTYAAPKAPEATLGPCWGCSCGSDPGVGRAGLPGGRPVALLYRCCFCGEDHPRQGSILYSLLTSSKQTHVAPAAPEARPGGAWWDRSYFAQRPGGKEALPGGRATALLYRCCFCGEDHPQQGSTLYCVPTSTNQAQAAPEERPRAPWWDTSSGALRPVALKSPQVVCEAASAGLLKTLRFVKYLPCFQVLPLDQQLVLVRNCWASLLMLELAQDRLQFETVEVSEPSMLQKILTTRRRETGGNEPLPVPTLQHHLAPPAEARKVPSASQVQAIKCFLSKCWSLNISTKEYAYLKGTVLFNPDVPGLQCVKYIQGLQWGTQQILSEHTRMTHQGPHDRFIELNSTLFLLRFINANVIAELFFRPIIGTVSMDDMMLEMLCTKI
smiles,measurement,setting,value
O=C(Nc1c(C(=O)N2CCC(N3CCCCC3)CC2)oc2ccccc12)c1ccc(F)cc1,IC50,[1],0.91 µM (active)
same,IC50,[2],1.63 µM (active)
same,IC50,cells,> 67.5 µM (inactive)
same,IC50,[3],> 67.5 µM (inactive)
